Data: US12648941B2, “Piperidine urea derivatives for use as inotropic agents” (Helsinn Healthcare SA, priority 2021, dated 2026)
“Also recorded” adds a separate entry of the source.

Experiments:
[1] = system: prolactin; assay: Phase 1 SAD pharmacodynamics, serum prolactin (ELISA); type: in vivo, human
Method: (§1) Blood samples for determination of growth hormone (GH), insulin-like growth factor-1 (IGF-1), adrenocorticotropic hormone (ACTH), prolactin, cortisol and aldosterone in serum at pre-dose and 0.5, 1, 2, 3, 4, 6 and 24 hours post-dose were collected by venous puncture. All biomarkers were determined using enzyme linked immunosorbent assays (ELISA). Simplified nutritional appetite questionnaire based on appetite assessments at Day −1 after dinner, and on Day 1 pre-dose, 1, 2, 4, 8, and 24 hours after dosing. Stool diary starting on Day 1 until discharge on Day 4.

[2] = system: aldosterone; assay: Phase 1 SAD pharmacodynamics, serum aldosterone (ELISA); type: in vivo, human
Method: as §1

[3] = system: adrenocorticotropic hormone (ACTH); assay: Phase 1 SAD pharmacodynamics, serum ACTH (ELISA); type: in vivo, human; conditions: higher doses; ACTH determined only after 1.0 mg
Method: as §1

[4] = system: cortisol; assay: Phase 1 SAD pharmacodynamics, serum cortisol (ELISA); type: in vivo, human
Method: as §1

[5] = system: growth hormone (GH); assay: Phase 1 SAD pharmacodynamics, serum GH (ELISA); type: in vivo, human
Method: as §1

[6] = Phase 1 single ascending dose study, urinary excretion; type: in vivo, human; conditions: 10 mg dose; urine collected 24 hours
Method: Blood samples for analytical assay of HM01 and the 3 major metabolites (M2, M6 and M9) were collected at pre-dose (within 60 minutes prior to drug administration), and at 0.25, 0.5, 1, 1.5, 2, 3, 4, 6, 8, 12, 16, 24, 30, 36, 48, 60 and 72 hours post dose (18 samples). Urine was collected for 24 hours after dosing. Blood and urine samples were analyzed for HM01 and its metabolites concentrations using validated LC-MS/MS methods.
Additional parameters were derived from urine, i.e., Ae(0-24), the amount of the parent drug and metabolites excreted in 24 h, and CLR, the renal clearance.

[7] = system: cardiomyocytes isolated from hearts of SHAM mice; assay: Intracellular Ca2+ transients (Fluo-3, confocal line scan); type: cell-based, mouse
Method: Cardiomyocytes were isolated freshly from cardiac ventricles separately from SHAM and HF mice following the protocol developed by the Alliance for Cellular Signalling (AfCS Procedure Protocol ID PP00000125). From each of the 5 SHAM and 3 HF hearts a cell suspension was made and divided into 10 aliquots each, for a total of 50 aliquots from SHAM and 30 aliquots from HF hearts. These aliquots were treated with vehicle, AC01/HM01 or D-Lys3-GHPR-6+AC01/HM01 as stated and used for the subsequent physiological and biochemical experiments.
AC01/HM01 was suspended in phosphate buffer saline solution (PBS: in mM: NaCl 137, KCl 7, Na2HPO4 10, KH2PO4 […]) and diluted to obtain 3 different concentrations: 0.2, 0.5 or 1 μM in Tyrode solution. We used a concentration range within 0.2-1 μM to ensure that the receptor was activated. […] Prior to contractility and Ca^2+ signaling measurements and biochemical assays, cardiomyocyte suspensions from SHAM and HF hearts were randomized to 3 types of treatments: vehicle, AC01/HM01, or D-Lys3-GHPR-6+AC01/HM01. The treatment with different agents occurred for 15 minutes at room temperature. Some cell suspension aliquots were flash frozen in liquid N2 and stored at −80° C. for later biochemistry analyses. All the experiments were conducted blinded regarding the treatment of cardiomyocytes.
Fresh isolated cardiomyocytes were aliquoted in 1.5 ml tubes and incubated with a cell permeable form of fluorescent Ca2+ indicator Fluo-3 AM followed by washing for >5 min. […] ImageJ software (open source software developed by NIH, Bethesda, USA) was used to quantify changes in fluorescence (Ca2+ transients) and contractility of single cardiomyocytes.
Ca^2+ transients were measured using a confocal microscope (Biorad) in line scan mode. […] The fluorescent signal (F/Fo) was calculated as the ratio between resting fluorescence before the start of the Ca^2+ transient (FO) and the peak fluorescence (F) of the Ca^2+ transient.

COc1ccc([C@H](C)NC(=O)N(C)[C@@H]2CCN(C)CC2(C)C)c(Cl)c1Cl.Cl [AC01/HM01, 1-[(1S)-1-(2,3-dichloro-4-methoxyphenyl)ethyl]-3-methyl-3-[(4R)-1-methyl-3,3-dimethyl-4-piperidyl]-urea]
prolactin increase, comparison of doses ([1]; 10 mg vs 1.0 mg): higher after 10 mg compared to 1.0 mg
concentrations of prolactin ([1]; 1.0 and 10 mg HM01): rapidly increased above baseline values
concentrations of aldosterone ([2]; 1.0 and 10 mg HM01): rapidly increased above baseline values
aldosterone increase, comparison of doses ([2]; 1.0 vs 10 mg): similar
concentrations of ACTH [3]: rapidly increased above baseline values
concentrations of cortisol ([4]; 1.0 and 10 mg HM01): rapidly increased above baseline values
cortisol increase, comparison of doses ([4]; 1.0 vs 10 mg): similar
GH increase ([5]; 0.3 and 0.1 mg HM01): lower increases
GH increase ([5]; 1.0 and 10 mg HM01): higher
mean GH curves, comparison of doses ([5]; 1.0 vs 10 mg HM01): similar
time of peak GH concentrations ([5]; after single oral administration): 2-3 hours post-dose
concentrations of GH vs baseline ([5]; after single oral administration, healthy males): increased from baseline
fraction of the dose excreted in the urine [6]: Approximately 10%
Ca2+ transient amplitude vs vehicle ([7]; 1 μM, with D-Lys 3 GHRP-6 pretreatment): did not have any impact on Ca^2+ transient amplitudes; also recorded: did not change the Ca^2+ transient amplitude
Ca2+ transient amplitude vs vehicle ([7]; 1 μM, without D-Lys3 pretreatment): did not have any impact on Ca^2+ transient amplitudes; also recorded: did not change the Ca^2+ transient amplitude
Ca2+ transient amplitude vs vehicle ([7]; all tested concentrations (0.2, 0.5, 1 μM)): no significant change in Ca^2+ transient amplitude; also recorded: did not cause alteration of Ca^2+ transient amplitudes
